The numbers were not newly measured in PMC8258280 (Virologica Sinica, 2021), which cites them from elsewhere.

Molecules are shown by their SMILES.

This series concerns SARS-CoV 3CL^pro. The following applies: read-out: IC50 against SARS-CoV 3CL^pro.

Regarding `O=c1cc(-c2ccc(O)c(-c3c(O)cc(O)c4c(=O)cc(-c5ccc(O)cc5)oc34)c2)oc2cc(O)cc(O)c12` [amentoflavone], the IC50 was 8.3 µM.

A word on the IC50: it is the midpoint of a concentration-inhibition curve.
